Where a name gives a salt, the structure may show the parent alone.

The target of the first test is IRE1α (Homo sapiens (Human), UniProt O75460, D688N). In words: IRE1α TR-FRET competition binding assay (IRE1α HTRF). Conditions: TR-FRET competition binding to kinase domain of IRE1α. As to the method: IRE1α TR-FRET Competition Binding Assay. The affinity of compound binding to the kinase domain of IRE1α was determined using a time-resolved fluorescence resonance energy transfer (TR-FRET) competition assay.
Sequence of IRE1α (O75460 547-977 D688N): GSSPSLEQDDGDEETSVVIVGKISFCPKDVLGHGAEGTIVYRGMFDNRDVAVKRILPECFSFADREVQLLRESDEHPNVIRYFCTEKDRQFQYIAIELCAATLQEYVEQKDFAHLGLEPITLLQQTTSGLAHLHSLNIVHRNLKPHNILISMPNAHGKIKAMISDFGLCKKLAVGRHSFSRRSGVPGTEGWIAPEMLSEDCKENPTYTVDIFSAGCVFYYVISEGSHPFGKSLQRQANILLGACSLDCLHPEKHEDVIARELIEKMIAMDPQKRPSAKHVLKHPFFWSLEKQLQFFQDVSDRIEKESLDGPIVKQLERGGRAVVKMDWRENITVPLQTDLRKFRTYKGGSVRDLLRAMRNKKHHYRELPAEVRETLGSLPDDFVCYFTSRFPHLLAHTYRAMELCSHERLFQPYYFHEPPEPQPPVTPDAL
The purified protein (final concentration 0.25 nM) was pre-incubated with anti-His Europium labeled antibody (Life Technologies PV5596, final concentration 2 nM) for one hour at 4° C. in TR-FRET Assay Buffer (50 mM HEPES, pH 7.5, 10 mM MgCl2, 0.083 mM Brij 35, 1 mM DTT, and 0.1% bovine gamma globulin) prior to addition to test compounds. An Alexa fluor 647-labeled probe based on an ATP competitive inhibitor was added to a final concentration of 2 nM. Reactions were carried out for one hour at room temperature in a final volume of 20 μL in 384 well white ProxiPlates (Perkin Elmer 6008289). Binding of the probe to the IRE1α protein was detected in an Envision instrument (PerkinElmer) equipped with a TRF laser option and a LANCE/Delfia Dual/Bias D400/D630 mirror (Ex 347 nm, 1st Em 665 nm, 2nd Em 615 nm).
Background: In TR-FRET formats the signal depends on donor and acceptor labels being close together.
The IC50 is the concentration that gives 50% inhibition. For `CC(C)n1c(=O)c(-c2cc(F)c(NS(=O)(=O)Cc3ccccc3F)c(F)c2F)cc2cnc(N[C@@H]3CNC[C@@H](O)C3)nc21` (racemic) [Compound 87, 1-(2-Fluorophenyl)-N-(2,3,6-trifluoro-4-(2-((5-hydroxypiperidin-3-yl)amino)-8-isopropyl-7-oxo-7,8-dihydropyrido[2,3-d]pyrimidin-6-yl)phenyl)methanesulfonamide], the IC50 stood at 0.63 nM.

In turn, `CC(C)n1c(=O)c(-c2cc(F)c(NS(=O)(=O)CC3CCC3(F)F)c(F)c2)nc2cnc(N[C@H]3CC[C@H](N(C)C)CC3)nc21` (mixture of isomers) [Example 250, 1-(2,2-Difluorocyclobutyl)-N-[4-[2-[[4-(dimethylamino)cyclohexyl]amino]-8-isopropyl-7-oxo-pteridin-6-yl]-2,6-difluoro-phenyl]methanesulfonamide] registered an IC50 of 0.2 nM.

Turning to `CC(C)n1c(=O)c(-c2ccc(NS(=O)(=O)CC3CCC3(F)F)c(F)c2)nc2cnc(N[C@H]3CC[C@H](N(C)C)CC3)nc21` (mixture of isomers) [Example 263, 1-(2,2-Difluorocyclobutyl)-N-[4-[2-[[4-(dimethylamino)cyclohexyl]amino]-8-isopropyl-7-oxo-pteridin-6-yl]-2-fluoro-phenyl]methanesulfonamide], the half-inhibitory concentration (IC50) turned out to be 0.1 nM.

Turning to `CC(C)n1c(=O)c(-c2ccc(NS(=O)(=O)CC3CCCC3(F)F)c(F)c2)nc2cnc(N[C@H]3CC[C@H](N(C)C)CC3)nc21` (mixture of isomers) [Example 264, 1-(2,2-Difluorocyclopentyl)-N-[4-[2-[[4-(dimethylamino)cyclohexyl]amino]-8-isopropyl-7-oxo-pteridin-6-yl]-2-fluoro-phenyl]methanesulfonamide], the IC50 worked out at 0.1 nM.

`CC(C)n1c(=O)c(-c2ccc(NS(=O)(=O)CC3CCCCC3(F)F)c(F)c2)nc2cnc(N[C@H]3CC[C@H](N(C)C)CC3)nc21` (mixture of isomers) [Example 272, 1-(2,2-Difluorocyclohexyl)-N-[4-[2-[[4-(dimethylamino)cyclohexyl]amino]-8-isopropyl-7-oxo-pteridin-6-yl]-2-fluoro-phenyl]methanesulfonamide] displayed a concentration for half-maximal inhibition (IC50) of 0.2 nM.

The compound `CC(C)n1c(=O)c(-c2ccc(NS(=O)(=O)CC3CCC4C(C3)C4(F)F)c(F)c2)nc2cnc(N[C@H]3CC[C@H](N(C)C)CC3)nc21` (mixture of isomers) [Example 273, 1-(7,7-Difluoronorcaran-3-yl)-N-[4-[2-[[(1RS)-4-(dimethylamino)cyclohexyl]amino]-8-isopropyl-7-oxo-pteridin-6-yl]-2-fluoro-phenyl]methanesulfonamide] yielded an IC50 of 0.2 nM. This counts as sub-nanomolar.

For the compound `CC(C)n1c(=O)c(-c2cc(F)c(NC(=O)C3CC3F)c(F)c2F)cc2cnc(N[C@H]3CC[C@H](N(C)C)CC3)nc21` (single isomer, unassigned) [Compound 98A, N-(4-(2-(((1r,4r)-4-(Dimethylamino)cyclohexyl)amino)-8-isopropyl-7-oxo-7,8-dihydropyrido[2,3-d]pyrimidin-6-yl)-2,3,6-trifluorophenyl)-2-fluorocyclopropane-1-carboxamide], the IC50 is 2.8 nM.

`CC(C)n1c(=O)c(-c2cc(F)c(NC(=O)C3CC3F)c(F)c2F)cc2cnc(N[C@H]3CC[C@H](N(C)C)CC3)nc21` (single isomer, unassigned) [Compound 98B, N-(4-(2-(((1r,4r)-4-(Dimethylamino)cyclohexyl)amino)-8-isopropyl-7-oxo-7,8-dihydropyrido[2,3-d]pyrimidin-6-yl)-2,3,6-trifluorophenyl)-2-fluorocyclopropane-1-carboxamide]: the IC50 was 2.2 nM.

Compound `COCCN(C)C1CCC(Nc2ncc3cc(-c4cc(F)c(NS(=O)(=O)Cc5ccccc5)c(F)c4F)c(=O)n(C(C)C)c3n2)CC1` (single isomer, unassigned) [Compound 102A, 1-Phenyl-N-(2,3,6-trifluoro-4-(8-isopropyl-2-((4-((2-methoxyethyl)(methyl)amino)cyclohexyl)amino)-7-oxo-7,8-dihydropyrido[2,3-d]pyrimidin-6-yl)phenyl)methanesulfonamide] had an IC50 of 0.16 nM. This IC50 lies about 14-fold lower than the previous one.

The compound `COCCN(C)C1CCC(Nc2ncc3cc(-c4cc(F)c(NS(=O)(=O)Cc5ccccc5)c(F)c4F)c(=O)n(C(C)C)c3n2)CC1` (single isomer, unassigned) [Compound 102B, 1-Phenyl-N-(2,3,6-trifluoro-4-(8-isopropyl-2-((4-((2-methoxyethyl)(methyl)amino)cyclohexyl)amino)-7-oxo-7,8-dihydropyrido[2,3-d]pyrimidin-6-yl)phenyl)methanesulfonamide] displayed an IC50 of 66 nM.

Compound `CC(C)n1c(=O)c(-c2ccc(NS(=O)(=O)CCC(F)(F)F)c(F)c2)cc2cnc(NC3CCC(N(C)C)C(F)C3)nc21` (single isomer, unassigned) [Compound 110A, N-(4-(2-((4-(Dimethylamino)-3-fluorocyclohexyl)amino)-8-isopropyl-7-oxo-7,8-dihydropyrido[2,3-d]pyrimidin-6-yl)-2-fluorophenyl)-3,3,3-trifluoropropane-1-sulfonamide] displayed an IC50 of 0.18 nM.

Compound `CC(C)n1c(=O)c(-c2ccc(NS(=O)(=O)CCC(F)(F)F)c(F)c2)cc2cnc(NC3CCC(N(C)C)C(F)C3)nc21` (single isomer, unassigned) [Compound 110B, N-(4-(2-((4-(Dimethylamino)-3-fluorocyclohexyl)amino)-8-isopropyl-7-oxo-7,8-dihydropyrido[2,3-d]pyrimidin-6-yl)-2-fluorophenyl)-3,3,3-trifluoropropane-1-sulfonamide] gave an IC50 of 0.7 nM.

In turn, `CC(C)n1c(=O)c(-c2cc(F)c(NS(=O)(=O)CCC(F)(F)F)c(F)c2)cc2cnc(NC3CCC(N(C)C)C(F)C3)nc21` (single isomer, unassigned) [Compound 118A, N-(4-(2-((4-(Dimethylamino)-3-fluorocyclohexyl)amino)-8-isopropyl-7-oxo-7,8-dihydropyrido[2,3-d]pyrimidin-6-yl)-2,6-difluorophenyl)-3,3,3-trifluoropropane-1-sulfonamide] displayed an IC50 of 0.73 nM. The IC50 values of the last two compounds are within 1.5-fold of each other.

`CC(C)n1c(=O)c(-c2cc(F)c(NS(=O)(=O)CCC(F)(F)F)c(F)c2)cc2cnc(NC3CC[C@H](N(C)C)C(F)C3)nc21` (single isomer, unassigned) [Compound 118B, N-(4-(2-((4-(Dimethylamino)-3-fluorocyclohexyl)amino)-8-isopropyl-7-oxo-7,8-dihydropyrido[2,3-d]pyrimidin-6-yl)-2,6-difluorophenyl)-3,3,3-trifluoropropane-1-sulfonamide] displayed an IC50 of 0.32 nM.

In the case of `CC(C)n1c(=O)c(-c2ccc(NS(=O)(=O)CC3CCC3(F)F)c(F)c2)cc2cnc(N[C@H]3CC[C@H](N(C)C)CC3)nc21` (single isomer, unassigned) [Compound 153A, 1-(2,2-Difluorocyclobutyl)-N-(4-(2-(((1r,4r)-4-(dimethylamino)cyclohexyl)amino)-8-isopropyl-7-oxo-7,8-dihydropyrido[2,3-d]pyrimidin-6-yl)-2-fluorophenyl)methanesulfonamide], the IC50 was determined as 0.21 nM.

`CC(C)n1c(=O)c(-c2ccc(NS(=O)(=O)CC3CCC3(F)F)c(F)c2)cc2cnc(N[C@H]3CC[C@H](N(C)C)CC3)nc21` (single isomer, unassigned) [Compound 153B, 1-(2,2-Difluorocyclobutyl)-N-(4-(2-(((1r,4r)-4-(dimethylamino)cyclohexyl)amino)-8-isopropyl-7-oxo-7,8-dihydropyrido[2,3-d]pyrimidin-6-yl)-2-fluorophenyl)methanesulfonamide] returned an IC50 of 0.16 nM.

The compound `CCC(C)n1c(=O)c(-c2ccc(NS(=O)(=O)Cc3ccccc3F)c(F)c2)cc2cnc(N[C@@H]3CNC[C@@H](F)C3)nc21` (single isomer, unassigned) [Compound 202A, hydrochloride] returned an IC50 of 0.26 nM. Compared with the last compound, the IC50 is about 1.6-fold higher.

For `CCC(C)n1c(=O)c(-c2ccc(NS(=O)(=O)Cc3ccccc3F)c(F)c2)cc2cnc(N[C@@H]3CNC[C@@H](F)C3)nc21` (single isomer, unassigned) [Compound 202B, hydrochloride], the IC50 amounted to 0.26 nM.

In turn, `CC[C@H](C)n1c(=O)c(-c2ccc(NS(=O)(=O)CCC(F)(F)F)c(F)c2)cc2cnc(N[C@H]3CC[C@H](N(C)C)CC3)nc21` (single isomer, unassigned) [Compound 203A] displayed a half-inhibitory concentration (IC50) of 0.1 nM. This IC50 lies about 2.6-fold lower than the previous one.

As for `CC[C@@H](C)n1c(=O)c(-c2ccc(NS(=O)(=O)CCC(F)(F)F)c(F)c2)cc2cnc(N[C@H]3CC[C@H](N(C)C)CC3)nc21` (single isomer, unassigned) [Compound 203], the IC50 stood at 0.21 nM.

Consider `CC(C)n1c(=O)c(-c2cc(F)c(NS(=O)(=O)CCC(F)(F)F)c(F)c2)nc2cnc(N[C@H]3CC[C@H](N(C)C)[C@@H](F)C3)nc21` (stereo in doubt) [Compound 168A, N-(4-(2-((4-(Dimethylamino)-3-fluorocyclohexyl)amino)-8-isopropyl-7-oxo-7,8-dihydropteridin-6-yl)-2,6-difluorophenyl)-3,3,3-trifluoropropane-1-sulfonamide], for which the IC50 came out at 0.24 nM.

Staying with this test, now noted: TR-FRET competition binding to kinase domain of IRE1α; hydrochloride.
Consider `CC(C)n1c(=O)c(-c2ccc(NS(=O)(=O)CCC(F)(F)F)c(F)c2)cc2cnc(NC3CCC(N(C)C)C(F)C3)nc21` (racemic) [Compound 154, N-(4-(2-((4-(Dimethylamino)-3-fluorocyclohexyl)amino)-8-isopropyl-7-oxo-7,8-dihydropyrido[2,3-d]pyrimidin-6-yl)-2-fluorophenyl)-3,3,3-trifluoropropane-1-sulfonamide hydrochloride], for which the IC50 turned out to be 0.13 nM.

For the origin of these results see US12344603B2 (Genentech, Inc., priority 2020, dated 2025).
